{"source": "patent US12024571B2", "about": "“Anti-erythropoietin receptor peptide” (Epo-Med Inc., priority 2018, dated 2024)", "key": {"[1]": {"system": "human liver cancer derived HepG2 cells", "test": "Lethal effect of synthetic peptides on HepG2 cells (Trypan blue positive cell count)", "assay_type": "cell-based", "conditions": "120, 60, 30 or 15 μM, 24 hours; FIGS. 34 to 37"}, "[2]": {"system": "human pancreatic cancer derived AsPC-1 cells", "test": "AsPC-1 cell proliferation, WST assay", "assay_type": "cell-based", "conditions": "10, 30 or 100 μM, 72 hours, FIG. 43", "description": "Human pancreatic cancer derived AsPC-1 cells (ECACC, 96020930) were passaged (twice/week) under the condition of 37° C. and 5% CO2-95% air using an RPMI-1640 medium (Sigma, R8758-500 ML) comprising 10% fetal bovine serum (biowest, S182H-500) and 1 mM sodium pyruvate (gibco, 11360-070). The AsPC-1 cells were collected from a culture dish using 0.05% trypsin-0.02% EDTA solution (Sigma, T4174-100 ML). The cells were suspended in the medium and then seeded on a 96-well microplate (3×10^3/0.05 mL/well). After culturing the cells overnight, a medium comprising the test compounds (total of 43 compounds, final concentration of 150 μM) was added (0.05 mL/well, 3 wells/test compound). After 72 hours, the cell proliferation capability for each well was measured by a WST assay (DOJINDO LABORATORIES, Cell Counting Kit-8), and the inhibition ratio for each test compound against the control (test compound-free well) was calculated.\nA WST assay is a viable cell count measuring method, which uses water-soluble tetrazolium salt WST-8 as a coloring reagent and uses water-soluble formazan generated by reduction of WST-8 as an indicator of viable cell count. NADH produced by a dehydrogenase in a cell converts WST-8 to water-soluble formazan. Since the generated water-soluble formazan has the maximum absorbance at about 450 nm, the viable cell count is indicated by measuring the absorbance at such a wavelength region.\nHuman pancreatic cancer derived AsPC-1 cells (ECACC, 96020930) were cultured, collected, and seeded on a 96-well microplate (3×10^3/0.05 mL/well) in the same manner as Example 3. After culturing the cells overnight, a medium comprising the test compounds (10, 30, or 100 μM) was added (0.05 mL/well, 3 wells/test compound). After 72 hours, the cell proliferation capability for each well was measured by a WST assay (DOJINDO LABORATORIES, Cell Counting Kit-8), and the inhibition ratio for each test compound against the control (test compound-free well) was computed."}, "[3]": {"system": "human T cell leukemia derived ATL-2 cells", "test": "ATL-2 cell proliferation, WST assay", "assay_type": "cell-based", "conditions": "150 μM, 72 hours, FIG. 39", "description": "Human T cell leukemia derived ATL-2 cells (provided by Dr. Maeda at the Kyoto University) were passaged (twice/week) under the condition of 37° C. and 5% CO2-95% air using an RPMI-1640 medium (Sigma, R8758-500 mL) comprising 10% fetal bovine serum (biowest, S182H-500). The ATL-2 cells were collected from a culture flask. The cells were suspended in the medium and then seeded on a 96-well microplate (3×10^3/0.05 mL/well). After culturing the cells overnight, a medium comprising the test compounds (total of 32 compounds, final concentration of 150 μM) was added (0.05 mL/well, 3 wells/test compound). After 72 hours, the cell proliferation capability for each well was measured by a WST assay (DOJINDO LABORATORIES, Cell Counting Kit-8), and the inhibition ratio for each test compound against the control (test compound-free well) was calculated."}, "[4]": {"system": "human pancreatic cancer derived AsPC-1 cells", "test": "Tumor growth in AsPC-1 cancer-bearing nude mouse model", "assay_type": "in vivo", "conditions": "intraperitoneal", "description": "(§1) Human pancreatic cancer derived AsPC-1 cells (ECACC, 96020930) were cultured and collected in the same manner as Example 3, suspended in the RPMI-1640 medium described above comprising 10% Matrigel (BD Bioscience, 354234), and transplanted subcutaneously to the right side on the back of a 6-week-old male nude mouse (SLC, BALB/cSlc-nu/nu) (5×10^6/0.1 mL/mouse). The length (L) and width (W) of the tumor were measured using a digital caliper. When the tumor volume (V) calculated from the formula V=L×W^2/2 reached about 150 to 200 mm^3, the mice were separated into groups and administered with test compounds (total of 8 compounds including GT-11263). Saline was administered to a control group. The compounds were administered intraperitoneally (0.1 mL/mouse, 3 to 5 mice/test compound) 3 times daily (one hour interval, a total of 0.2 mg/day), 3 times a week for 2 weeks. The tumor size and body weight were measured twice a week to monitor the status of tumor growth and the effect of the administration of test compounds.\nIn the same manner as Example 5, human pancreatic cancer derived AsPC-1 cells were transplanted subcutaneously to the right side on the back of a 6-week-old male nude mouse (SLC, BALB/cSlc-nu/nu) (5×10^6/0.1 mL/mouse). The length (L) and width (W) of the tumor were measured using a digital caliper. When the tumor volume (V) calculated from the formula V=L×W^2/2 reached about 150 to 200 mm^3, the mice were separated into groups and administered with test compounds (GT-11269, GT-11309, and GT-11350). Saline was administered to a control group. The compounds were administered intraperitoneally (0.1 mL/mouse, 5 mice/test compound) 3 times daily (one hour interval, a total of 0.5 mg/day), twice a week for 4 weeks. The tumor size and body weight were measured twice a week to monitor the effect of the administration of test compounds (FIG. 45).\n(§2) In the same manner as Example 5, human pancreatic cancer derived AsPC-1 cells were transplanted subcutaneously to the right side on the back of a 6-week-old male nude mouse (SLC, BALB/cSlc-nu/nu), and when the tumor volume (V) reached about 150 to 200 mm^3, the mice were separated into groups and administered with test compounds (GT-11350). Saline was administered to a control group. The compounds were administered intraperitoneally (0.1 mL/mouse) 3 times daily (one hour interval, a total of 0.1 mg, 0.2 mg, or 0.4 mg/day), twice a week for 4 weeks. The tumor size and body weight were measured twice a week to monitor the effect of the dose of test compounds (FIG. 49).\nas §2, with “of” for “of 0.1 mg,”, “mg/day)” for “mg,”, “once daily (0.2” for “0.4”, “administration” for “dose”, “compounds.” for “compounds (FIG. 49).”"}, "[5]": {"system": "human leukemia derived UT-7 cells", "test": "Epo dependent UT-7 cell proliferation, WST assay", "assay_type": "cell-based", "conditions": "Epo 1 U/mL, 4 days; GT-11309 1 to 100 μM, antibodies 1 to 100 μg/mL; FIG. 42", "description": "Human leukemia derived UT-7 cells (provided by Dr. Fujita at the Hokkaido University) were passaged (twice/week) under the condition of 37° C. and 5% CO2-95% air using a D-MEM medium (Sigma, D5796-500 ML) comprising recombinant human erythropoietin (Epo, 2 U/mL) and 10% fetal bovine serum (biowest, S182-H-500), and cultured for a total of 9 weeks. The Epo treated UT-7 cells were washed three times and seeded on a 96-well microplate (1×10^4/well). An anti-Epo monoclonal antibody (clone R6, provided by Dr. Masuda at the Kyoto University, 1 to 100 μg/mL), anti-EpoR monoclonal antibody (clone 713210, R&D Systems, MAB3073, 1 to 100 μg/mL) or GT-11309 (1 to 100 μM), in the presence of Epo (0 to 10 U/mL) or Epo (1 U/mL), was added. After 4 days of culture, the cell proliferation capability for each well was measured as absorbance at 450 nm by a WST assay (DOJINDO LABORATORIES, Cell Counting Kit-8)."}, "[6]": {"test": "Body weight of AsPC-1 cancer-bearing mice given peptides", "assay_type": "in vivo, mouse", "conditions": "total 0.1, 0.2 or 0.4 mg/day, twice a week for 4 weeks; FIG. 49", "description": "as §1, with “The compounds were administered intraperitoneally (0.1 mL/mouse, 3 to 5 mice/test compound) 3 times daily (one hour interval, a total of 0.2 mg/day), 3 times a week for 2 weeks.” left out\nIn the same manner as Example 5, human pancreatic cancer derived AsPC-1 cells were transplanted subcutaneously to the right side on the back of a 6-week-old male nude mouse (SLC, BALB/cSlc-nu/nu) (5×10^6/0.1 mL/mouse). The length (L) and width (W) of the tumor were measured using a digital caliper. When the tumor volume (V) calculated from the formula V=L×W^2/2 reached about 150 to 200 mm^3, the mice were separated into groups and administered with test compounds (GT-11269, GT-11309, and GT-11350). […]"}, "[7]": {"test": "Hematocrit value and blood hemoglobin concentration in AsPC-1 cancer-bearing mice", "assay_type": "in vivo, mouse", "conditions": "day 4 from final administration, 0.1, 0.2 or 0.4 mg/day; FIG. 50", "description": "(§3) Blood was drawn on day 6 from the final administration from an AsPC-1 cancer-bearing mouse administered with GT-11269, GT-11309, or GT-11350 by the same protocol, and the hematocrit value was measured by the capillary method using a high speed centrifuge. The blood hemoglobin concentration was also measured using a commercially available measurement kit (BioAssay Systems, DIHB-250) (FIG. 47).\nas §3, with “4” for “6”, “with” for “with GT-11269, GT-11309, or”, “50).” for “47).”"}, "[8]": {"system": "human breast cancer derived HCC1395 cells", "test": "HCC1395 breast cancer cell proliferation, amount of ATP (CellTiter-Glo 2.0)", "assay_type": "cell-based", "conditions": "0 to 100 μM, 72 hours; FIG. 44 left", "description": "(§4) Human breast cancer derived HCC1395 cells (ATCC, CRL-2327) and HCC1806 (ATCC, CRL-2335) were cultured, collected, and seeded on a 384-well microplate (1×10^3 and 3×10^3/0.04 mL/well). After culturing the cells overnight, a medium comprising GT-11350 (0 to 100 μM) was added (0.01 mL/well). After 72 hours, the cell proliferation capability for each well against the control (test compound-free well) was calculated using the amount of ATP as an indicator, which was measured using CellTiter-Glo 2.0 (Promega, G9242)."}, "[9]": {"system": "human breast cancer derived HCC1806 cells", "test": "HCC1806 breast cancer cell proliferation, amount of ATP (CellTiter-Glo 2.0)", "assay_type": "cell-based", "conditions": "0 to 100 μM, 72 hours; FIG. 44 right", "description": "as §4"}}, "note": "Bridge positions count the residues as written; N and C are the ends. Square brackets hold non-standard residues; d marks the D form. Ala(benzothiazol-2-yl) = N[C@@H](Cc1nc2ccccc2s1)C(=O)O"}
{"substance": "Ac-SCHYGPLT(2-benzothiazolylalanine)VCK-NH2 (Ac-SCHYGPLT[Ala(benzothiazol-2-yl)]VCK-NH2; disulfide 2-11 (inferred)) [GT-11309]", "values": [{"measurement": "HepG2 cell killing effect compared with YS12 (Trypan blue positive cells per 1 mm^2)", "setting": "[1]", "result": "equivalent or greater than that of YS12"}, {"measurement": "proliferation inhibiting action against AsPC-1 cells (inhibition ratio against control)", "setting": "[2]", "result": "potent proliferation inhibiting action"}, {"measurement": "proliferation inhibiting action on ATL-2 cells (inhibition ratio against control)", "setting": "[3]", "result": "potent proliferation inhibiting action"}, {"measurement": "antitumor effect (relative tumor volume)", "setting": "[4]; 3 times daily, total 0.2 mg/day, 3 times a week for 2 weeks, FIG. 40", "result": "potent and had an early manifestation of effect"}, {"measurement": "Epo dependent cancer cell proliferation (UT-7)", "setting": "[5]", "result": "suppressed Epo dependent cancer cell proliferation"}]}
{"substance": "Ac-SCHYGPMT(2-benzothiazolylalanine)VCK-NH2 [GT-11350]", "values": [{"measurement": "proliferation inhibiting action against AsPC-1 cells (inhibition ratio against control)", "setting": "[2]", "result": "potent proliferation inhibiting action"}, {"measurement": "anti-tumor effect, 3 times daily versus once daily", "setting": "[4]; 0.2 mg/day, 3 times daily or once daily, twice a week for 4 weeks, FIG. 51", "result": "same anti-tumor effect for both 3 times daily and once daily administration methods"}, {"measurement": "anti-tumor effect (relative tumor volume) by dose", "setting": "[4]; 3 times daily, total 0.1, 0.2 or 0.4 mg/day, twice a week for 4 weeks, FIG. 49", "result": "dose dependent anti-tumor effect"}, {"measurement": "body weight", "setting": "[6]", "result": "not affected"}, {"measurement": "blood hemoglobin concentration", "setting": "[7]", "result": "none of the doses had an effect"}, {"measurement": "hematocrit value", "setting": "[7]", "result": "none of the doses had an effect"}, {"measurement": "proliferation suppressing capability against breast cancer cell line HCC1395", "setting": "[8]", "result": "exhibited proliferation suppressing capability"}, {"measurement": "proliferation suppressing capability against breast cancer cell line HCC1806", "setting": "[9]", "result": "exhibited proliferation suppressing capability"}]}
